This is an account of results in patent publication US20220324898A1, “PROSTATE SPECIFIC MEMBRANE ANTIGEN (PSMA) LIGANDS COMPRISING AN AMYLASE CLEAVABLE LINKER” (Deutsches Krebsforschungszentrum, priority 2019, published 2022).

pIC50: −log10 of the molar value.

Data set [1] in a line: Organ distribution of 177Lu-labeled PSMA ligands in LNCaP tumor-bearing mice. It counts as in vivo, BALB/c nu/nu mice. The settings on record: 60 pmol via tail vein, mean, n=3; for Organ distribution: Tumor: LNCaP tumor. On the procedure: 5×10^6 LNCaP cells were subcutaneously inoculated into the right flank of male 6-week-old BALB/c nu/nu mice (Charles River Laboratories). Tumors were grown for ˜3 weeks, to ˜200 mm^3. 60 pmoles of ^177Lu labelled PSMA-ligands were dissolved in 100 μL 0.9% NaCl and injected per mouse. The solution was injected via the tail vein, followed by sacrifice at various time points. Organs of interest (blood, heart, lung, spleen, liver, kidney, muscle, small intestine, brain, tumor, and femur) were dissected, blotted dry, and weighed. The radioactivity was measured using a gamma counter and calculated as % ID/g, and corrected for ^177Lu decay.
The results are given in the following tables (mean+standard deviation; per time point n=3 animals) (see also FIG. 4): […]

In a further data set the test system is LNCaP cells. Put plainly: Internalization and cell surface binding of 177Lu-labeled PSMA ligands. Format: cell-based. The settings on record: 30 nM 177Lu-labeled ligand, 45 min, 37° C., blocking with 2-PMPA. On the procedure:
10^5 LNCaP cells were seeded in poly-L-lysine coated 24-well cell culture plates. 24 h later, wells were washed and the cells incubated with a 30 nM solution of ^177Lu radiolabeled PSMA-ligand (PSMA-617 or PSMA-MT) in 250 μL medium, for 45 min at 37° C. In the blocking experiments, incubation was performed in the presence of excess of 2-PMPA to assess competition for PSMA. Following incubation, PSMA-ligand containing medium was removed by washing 3 times with 1 mL of ice-cold PBS. Cells were subsequently incubated twice with 0.5 mL glycine-HCl in PBS (50 mM, pH=2.8) for 5 min to extract the cell membrane associated fraction. The cells were then washed with 1 mL of ice-cold PBS, and lysed with 0.5 mL 0.3 M NaOH. The membrane bound and lysed (internalized) fractions were assessed for radioactivity levels using a gamma counter (Packard Cobra II, GMI, Minn., USA). Cell uptake was calculated as percent of the initially added radioactivity detected in 10^5 cells [% IA/10^5 cells].

The test system of another data set is prostate cancer. The settings on record: cited from earlier work.
The target in a further data set is T1, PSMA (Homo sapiens, UniProt Q04609).
T1 construct: endogenous in cells
T1 sequence (Q04609 whole entry): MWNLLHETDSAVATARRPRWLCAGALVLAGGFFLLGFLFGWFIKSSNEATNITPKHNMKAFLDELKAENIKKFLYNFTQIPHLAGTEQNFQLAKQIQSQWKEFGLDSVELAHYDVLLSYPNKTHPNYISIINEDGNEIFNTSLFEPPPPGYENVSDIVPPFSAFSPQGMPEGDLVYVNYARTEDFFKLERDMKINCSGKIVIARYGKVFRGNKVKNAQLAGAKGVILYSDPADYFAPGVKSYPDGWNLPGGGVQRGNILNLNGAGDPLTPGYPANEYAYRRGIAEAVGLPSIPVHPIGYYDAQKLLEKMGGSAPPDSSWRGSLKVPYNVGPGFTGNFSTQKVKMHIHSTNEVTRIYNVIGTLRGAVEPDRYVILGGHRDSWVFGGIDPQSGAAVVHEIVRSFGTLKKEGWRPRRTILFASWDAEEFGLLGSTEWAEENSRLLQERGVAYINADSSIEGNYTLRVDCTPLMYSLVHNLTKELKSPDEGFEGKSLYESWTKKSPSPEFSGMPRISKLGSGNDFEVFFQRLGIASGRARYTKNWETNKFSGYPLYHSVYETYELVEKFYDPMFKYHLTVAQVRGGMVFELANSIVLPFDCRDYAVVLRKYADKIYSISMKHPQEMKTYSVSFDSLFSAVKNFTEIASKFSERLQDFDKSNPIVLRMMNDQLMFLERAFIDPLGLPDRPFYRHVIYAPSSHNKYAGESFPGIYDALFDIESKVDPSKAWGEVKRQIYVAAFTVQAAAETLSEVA
Put plainly: Competitive cell binding against 68Ga-labeled PSMA-10 radioligand. The settings on record: non-labeled compound vs 0.8 nM 68Ga-PSMA-10; first preliminary experiments; read-out: IC50 (50% inhibitory concentration), competitive cell binding. On the procedure: For the determination of competitive cell binding the cells (10^5 per well) were incubated with a 0.8 nM solution of ^68Ga-labeled radioligand [Glu-urea-Lys(Ahx)]2-HBED-CC (PSMA-10, precursor ordered from ABX, Radeberg, Germany) in the presence of 12 different concentrations of analyte (non-labeled compounds, 0-5000 nM, 100 μL/well). After incubation, the mixture was removed and the wells were washed 3 times with PBS using a multiscreen vacuum manifold (Millipore, Billerica, Mass.). Cell-bound radioactivity was measured using a gamma counter (Packard Cobra II, GMI, Minn., USA). The 50% inhibitory concentration (IC50) values were calculated by fitting the data using a nonlinear regression algorithm (GraphPad Software).

For another data set, the target named is T2, α-Amylase (Homo sapiens, UniProt P0DUB6).
T2 sequence (P0DUB6 16-511): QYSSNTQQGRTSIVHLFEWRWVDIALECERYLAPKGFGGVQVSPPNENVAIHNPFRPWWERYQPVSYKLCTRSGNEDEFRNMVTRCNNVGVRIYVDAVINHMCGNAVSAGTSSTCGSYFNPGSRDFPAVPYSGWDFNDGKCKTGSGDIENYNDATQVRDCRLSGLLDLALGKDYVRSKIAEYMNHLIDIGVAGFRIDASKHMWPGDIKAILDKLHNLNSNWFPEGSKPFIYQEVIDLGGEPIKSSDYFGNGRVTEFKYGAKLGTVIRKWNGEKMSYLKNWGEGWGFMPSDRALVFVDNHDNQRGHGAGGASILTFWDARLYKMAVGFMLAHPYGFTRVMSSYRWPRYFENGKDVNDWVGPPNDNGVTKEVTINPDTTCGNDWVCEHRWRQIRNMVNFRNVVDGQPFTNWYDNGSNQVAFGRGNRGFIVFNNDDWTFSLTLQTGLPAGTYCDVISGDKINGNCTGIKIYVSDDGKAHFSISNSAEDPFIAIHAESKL
Put plainly: α-Amylase digestion of PSMA-MT, analysed by RP-HPLC and MALDI-TOF. Format: in vitro ADME. Here is the method: 10 μl of a solution of PSMA-MT in ultrapure water with a concentration of 1 mM were analyzed by analytic RP-HPLC and MALDI-TOF before the digestion. For digestion 10 μl of α-Amylase (1 U/μl in H2O ) were added to 10 μl of a solution of PSMA-MT in ultrapure water with a concentration of 1 mM and incubated at RT for 1 h. The solution was afterwards analyzed with analytic RP-HPLC and MALDI-TOF to evaluate the reaction.
To investigate the exact digest position of PSMA-MT the different fragments found in the MALDI-TOF after the digest were compared. Two main peaks occurred at 902 g/mol and at 989 g/mol. […] Fragments corresponding to cleavage at cleavage site B could not be detected in the MALDI-TOF.

Data set [2] addresses T3, α-amylase (isolated from the human salivary gland) (Homo sapiens, UniProt P0DUB6).
T3 construct: incubated with α-amylase (isolated from the human salivary gland, Sigma-Aldrich); purchased Sigma-Aldrich; host or cells: human salivary gland (natural source)
T3 sequence (P0DUB6 16-511): T2 sequence (P0DUB6 16-511)
Put plainly: Cleavability of the linker by α-amylase, monitored by analytical HPLC. It counts as in vitro ADME. The settings on record: in vitro, after 177Lu labeling according to example 1A, analytical HPLC at different times. On the procedure: FIG. 1. The time-dependent cleavability of the compound PSMA-MT by α-amylase is shown. ^177Lu-PSMA-MT was incubated with an α-amylase (isolated from the human salivary gland) and enzymatic cleavage was monitored at different times by analytical HPLC.
The radiolabelled compound was incubated with α-amylase (isolated from the human salivary gland, Sigma-Aldrich) according to instructions of the manufacturer and enzymatic cleavage was monitored at different times by analytical HPLC (see FIG. 1).

Take `O=C([O-])CN1CCN(CC(=O)[O-])CCN(CC(=O)NCC2CCC(C(=O)N[C@@H](Cc3ccc4ccccc4c3)C(=O)NCCCC[C@H](NC(=O)N[C@@H](CCC(=O)O)C(=O)O)C(=O)O)CC2)CCN(CC(=O)[O-])CC1.[177Lu+3]` (some centres unmarked) [177Lu-PSMA-617, reference compound]: in data set [1] (1 h), the “Organ distribution: Blood” value was determined as 0.31 % ID/g, the “Organ distribution: Brain” value was found to be 0.02 % ID/g, the “Organ distribution: Heart” value was determined as 0.17 % ID/g and the “Organ distribution: Kidney (first Kidney column)” value worked out at 143.55 % ID/g. Further, in data set [1] (1 h), the “Organ distribution: Kidney (second Kidney column)” value stood at 146.77 % ID/g, the “Organ distribution: Liver” value came to 4.73 % ID/g, the “Organ distribution: Lung” value was 0.61 % ID/g and the “Organ distribution: Muscle” value was determined as 0.07 % ID/g. For the same compound, in data set [1] (1 h), the “Organ distribution: Small Intestine” value turned out to be 0.18 % ID/g, the “Organ distribution: Spleen” value came to 5.86 % ID/g, the “Organ distribution: Tail” value is listed as 3.46 % ID/g and the “Organ distribution: Tumor” value is on record as 19.20 % ID/g. In data set [1] (4 h), the “Organ distribution: Blood” value turned out to be 0.03 % ID/g, the “Organ distribution: Brain” value was 0.01 % ID/g, the “Organ distribution: Heart” value is on record as 0.03 % ID/g and the “Organ distribution: Kidney (first Kidney column)” value came to 5.52 % ID/g. Further, in data set [1] (4 h), the “Organ distribution: Kidney (second Kidney column)” value is 5.50 % ID/g, the “Organ distribution: Liver” value was 1.57 % ID/g, the “Organ distribution: Lung” value was determined as 0.08 % ID/g and the “Organ distribution: Muscle” value is 0.01 % ID/g. For the same compound, in data set [1] (4 h), the “Organ distribution: Small Intestine” value is given as 0.04 % ID/g, the “Organ distribution: Spleen” value was 1.20 % ID/g, the “Organ distribution: Tail” value came out at 0.78 % ID/g and the “Organ distribution: Tumor” value is 14.77 % ID/g. For the same compound, in the data set with LNCaP cells, the “Specifically cell surface bound (cell uptake), mean” value is listed as 4,09228993 % IA/10^5 cells and the “Specifically internalized (cell uptake), mean” value was 2,63598315 % IA/10^5 cells.

In the case of `O=C([O-])CN1CCN(CC(=O)[O-])CCN(CC(=O)N2CCN(c3cccc(C4OCC5OC(OC6C(CO)OC(OC7C(CO)OC(Oc8ccc(CCC(=O)NCC9CCC(C(=O)NC(Cc%10ccc%11ccccc%11c%10)C(=O)NCCCCC(NC(=O)NC(CCC(=O)O)C(=O)O)C(=O)O)CC9)cc8)C(O)C7O)C(O)C6O)C(O)C(O)C5O4)c3)CC2)CCN(CC(=O)[O-])CC1.[177Lu+3]` (centres unmarked) [177Lu-PSMA-MT], in data set [1] (1 h), the “Organ distribution: Blood” value worked out at 0.35 % ID/g, the “Organ distribution: Brain” value is reported as 0.02 % ID/g, the “Organ distribution: Heart” value is 0.16 % ID/g and the “Organ distribution: Kidney (first Kidney column)” value is given as 144.27 % ID/g. For the same compound, in data set [1] (1 h), the “Organ distribution: Kidney (second Kidney column)” value was 142.04 % ID/g, the “Organ distribution: Liver” value is reported as 2.07 % ID/g, the “Organ distribution: Lung” value was 0.56 % ID/g and the “Organ distribution: Muscle” value is on record as 0.08 % ID/g. Also, in data set [1] (1 h), the “Organ distribution: Small Intestine” value is recorded as 0.15 % ID/g, the “Organ distribution: Spleen” value is on record as 3.83 % ID/g, the “Organ distribution: Tail” value worked out at 4.61 % ID/g and the “Organ distribution: Tumor” value is recorded as 12.83 % ID/g. Besides, in data set [1] (4 h), the “Organ distribution: Blood” value turned out to be 0.04 % ID/g, the “Organ distribution: Brain” value was 0.01 % ID/g, the “Organ distribution: Heart” value was 0.04 % ID/g and the “Organ distribution: Kidney (first Kidney column)” value is 20.59 % ID/g. Moreover, in data set [1] (4 h), the “Organ distribution: Kidney (second Kidney column)” value came to 19.45 % ID/g, the “Organ distribution: Liver” value stood at 4.58 % ID/g, the “Organ distribution: Lung” value was determined as 0.10 % ID/g and the “Organ distribution: Muscle” value came out at 0.02 % ID/g. For the same compound, in data set [1] (4 h), the “Organ distribution: Small Intestine” value turned out to be 0.04 % ID/g, the “Organ distribution: Spleen” value is listed as 3.94 % ID/g, the “Organ distribution: Tail” value was 0.50 % ID/g and the “Organ distribution: Tumor” value was determined as 9.18 % ID/g. In the data set with LNCaP cells, the “Specifically cell surface bound (cell uptake), mean” value is given as 4,86794251 % IA/10^5 cells and the “Specifically internalized (cell uptake), mean” value is listed as 2,14459836 % IA/10^5 cells.

Take `O=C([O-])CC[C@H](NC(=O)N[C@@H](CCCCNC(=O)[C@H](Cc1ccc2ccccc2c1)NC(=O)C1CCC(CNC(=O)CN2CCN(CC(=O)[O-])CCN(CC(=O)[O-])CCN(CC(=O)[O-])CC2)CC1)C(=O)[O-])C(=O)[O-].[225Ac].[H+].[H+].[H+]` (some centres unmarked) [225Ac-PSMA-617]: in the data set with prostate cancer (both patients), the PSA value result is “below the detectability limit”. Moreover, the Clinical response result in the data set with prostate cancer (two patients with extremely advanced and end-stage disease) is “complete remission”.

As to `O=C(O)CCC(NC(=O)NC(CCCCNC(=O)C(Cc1ccc2ccccc2c1)NC(=O)C1CCC(CNC(=O)CN2CCN(CC(=O)O)CCN(CC(=O)O)CCN(CC(=O)O)CC2)CC1)C(=O)O)C(=O)O` (centres unmarked) [PSMA-617, 2-[3-(1-Carboxy-5-{3-naphthalen-2-yl-2-[(4-{[2-(4,7,10-tris-carboxymethyl-1,4,7,10-tetraaza-cyclododec-1-yl)-acetylamino]-methyl}-cyclohexanecarbonyl) -amino]-propionylamino}-pentyl)-ureido]-pentanedioic acid, reference compound], the pIC50 at PSMA is ~7.70.

As to `O=C(O)CCC(NC(=O)NC(CCCCNC(=O)C(Cc1ccc2ccccc2c1)NC(=O)C1CCC(CNC(=O)CCc2ccc(OC3OC(CO)C(OC4OC(CO)C(OC5OC6COC(c7cccc(N8CCN(C(=O)CN9CCN(CC(=O)O)CCN(CC(=O)O)CCN(CC(=O)O)CC9)CC8)c7)OC6C(O)C5O)C(O)C4O)C(O)C3O)cc2)CC1)C(=O)O)C(=O)O` (centres unmarked) [PSMA-MT, 1-(4-(3-oxo-3-PSMA-propyl)phenyl)-4″,6″-(3-(4-DOTA-piperazine)benzylidene)maltotriose], the “Turnover of PSMA-MT on digestion with α-Amylase (original mass peak disappeared)” value on α-Amylase (1 h at RT, 1 U/μl α-Amylase, 1 mM PSMA-MT, MALDI-TOF) is listed as “complete turnover”. In addition, at α-Amylase (MALDI-TOF after digest, fragments for cleavage site B could not be detected), the “Alpha-amylase cleavage site whose predicted fragments were found” value was “cleavage site A”. Also, the “Basic cleavability of the linker by α-amylases” value in data set [2] was “demonstrated”. For the same compound, the pIC50 at PSMA is ~7.41.
